Results on three molecules are retold here after patent publication US20250034159A1, “INHIBITORS OF EPIDERMAL GROWTH FACTOR RECEPTOR” (ORIC Pharmaceuticals, Inc., priority 2021, published 2025).

Experiment [1] concerns the target recombinant human EGFR L858R/C797S double mutant protein (Homo sapiens (Human), UniProt P00533, C797S/L858R). Put plainly: Biological Activity Assay B: biochemical assay against EGFR L858R/C797S protein (EGFR LR/CS). Put shortly:
(§1)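 IC50 values were fitted with a 4-parameter model to reaction slopes taken from 90 kinetic reads spaced 120 s apart. The Phosphosens sensor/ATP working solution was 40 uM/4 mM, and compound was dosed as 16-point dilutions at 2.5% final DMSO.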

Experiment [2] has as its target recombinant human EGFR exon 19 deletion/C797S double mutant protein (Homo sapiens (Human), UniProt P00533, C797S/DEL746-750). The experiment in a line: Biological Activity Assay C: biochemical assay against EGFR exon 19 deletion/C797S protein (EGFR d19/CS). In outline:
as §1

Experiment [3] has as its system Ba/F3_EGFR WT cells. The experiment in a line: Biological Activity Assay D: BaF3 cell proliferation assay, EGFR wild-type (BaF3 WT). The class given is cell-based. To be noted: Ba/F3 EGFR; Ba/F3_EGFR WT cells, ~72 hours, CellTiter-Glo; read-out: BaF3 WT IC50. (In general: ATP-based viability assays read luminescence as a measure of living cells.)
Experiment [4] has as its system BaF3_EGFR LR/CS cells. The experiment in a line: Biological Activity Assay D: BaF3 cell proliferation assay, EGFR L858R/C797S mutant (BaF3 LR/CS). The class given is cell-based. The note with it: Ba/F3 EGFR; BaF3_EGFR LR/CS cells, ~72 hours, CellTiter-Glo; read-out: BaF3 LR/CS IC50.
Experiment [5] concerns BaF3_EGFR d19/CS cells. Put plainly: Biological Activity Assay D: BaF3 cell proliferation assay, EGFR exon 19 deletion/C797S (BaF3 d19/CS). The class given is cell-based. The note with it: Ba/F3 EGFR; BaF3_EGFR d19/CS cells, ~72 hours, CellTiter-Glo; read-out: BaF3 d19/CS IC50.

Molecules are shown by their SMILES.

Chain of recombinant human EGFR L858R/C797S double mutant protein (P00533 25-1210 C797S/L858R): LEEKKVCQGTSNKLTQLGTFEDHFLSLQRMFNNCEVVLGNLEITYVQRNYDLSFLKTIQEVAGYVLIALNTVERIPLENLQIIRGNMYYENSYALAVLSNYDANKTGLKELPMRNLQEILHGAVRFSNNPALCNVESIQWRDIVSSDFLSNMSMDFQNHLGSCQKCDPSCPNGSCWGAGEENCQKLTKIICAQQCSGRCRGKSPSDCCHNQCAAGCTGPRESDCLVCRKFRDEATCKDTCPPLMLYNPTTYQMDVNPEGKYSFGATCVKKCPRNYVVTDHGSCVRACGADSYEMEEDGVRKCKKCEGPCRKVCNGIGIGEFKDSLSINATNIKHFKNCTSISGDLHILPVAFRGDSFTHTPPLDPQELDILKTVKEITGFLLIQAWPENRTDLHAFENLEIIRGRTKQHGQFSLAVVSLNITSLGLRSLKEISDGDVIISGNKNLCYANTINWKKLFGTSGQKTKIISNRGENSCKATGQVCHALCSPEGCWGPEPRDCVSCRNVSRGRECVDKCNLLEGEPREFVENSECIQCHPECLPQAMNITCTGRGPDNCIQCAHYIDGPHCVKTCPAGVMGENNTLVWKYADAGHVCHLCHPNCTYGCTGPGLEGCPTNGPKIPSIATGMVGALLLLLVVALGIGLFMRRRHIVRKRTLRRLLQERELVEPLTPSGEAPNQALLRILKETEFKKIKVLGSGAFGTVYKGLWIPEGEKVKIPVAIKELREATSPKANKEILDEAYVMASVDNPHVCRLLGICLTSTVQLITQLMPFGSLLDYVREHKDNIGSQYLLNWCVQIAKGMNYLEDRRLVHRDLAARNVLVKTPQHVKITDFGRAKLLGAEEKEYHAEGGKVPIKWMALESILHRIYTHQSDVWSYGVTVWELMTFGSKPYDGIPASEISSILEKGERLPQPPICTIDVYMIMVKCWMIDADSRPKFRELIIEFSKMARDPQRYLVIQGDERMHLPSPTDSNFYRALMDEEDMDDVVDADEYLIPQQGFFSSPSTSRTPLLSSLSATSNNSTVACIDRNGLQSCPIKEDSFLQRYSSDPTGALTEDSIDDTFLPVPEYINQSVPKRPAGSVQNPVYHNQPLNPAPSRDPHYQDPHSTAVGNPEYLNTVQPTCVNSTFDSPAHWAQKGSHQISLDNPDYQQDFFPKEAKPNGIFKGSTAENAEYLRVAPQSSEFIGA
Chain of recombinant human EGFR exon 19 deletion/C797S double mutant protein (P00533 other isoform, or with tags, fused parts or gaps C797S/del 1-668/del 746-750 limits assumed): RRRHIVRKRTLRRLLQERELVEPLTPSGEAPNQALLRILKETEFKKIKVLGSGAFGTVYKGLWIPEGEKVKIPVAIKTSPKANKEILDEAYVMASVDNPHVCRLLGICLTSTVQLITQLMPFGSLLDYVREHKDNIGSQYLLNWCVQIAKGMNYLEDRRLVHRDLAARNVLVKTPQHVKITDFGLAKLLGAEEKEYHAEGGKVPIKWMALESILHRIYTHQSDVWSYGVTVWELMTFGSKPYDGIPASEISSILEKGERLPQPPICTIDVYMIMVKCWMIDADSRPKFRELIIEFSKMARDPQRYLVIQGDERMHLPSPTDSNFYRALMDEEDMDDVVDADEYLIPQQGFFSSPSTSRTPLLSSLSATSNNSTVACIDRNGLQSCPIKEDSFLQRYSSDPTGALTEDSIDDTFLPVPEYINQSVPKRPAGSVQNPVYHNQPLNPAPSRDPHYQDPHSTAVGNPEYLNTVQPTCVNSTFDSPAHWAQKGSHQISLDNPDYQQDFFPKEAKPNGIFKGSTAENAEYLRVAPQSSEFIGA

On to `CNC(=O)CCn1cc(-c2ncnc3oc(-c4ccccc4)cc23)c(-c2ccc(F)cc2)n1` [Example 117, 3-[3-(4-fluorophenyl)-4-(6-phenylfuro[2,3-d]pyrimidin-4-yl)-1H-pyrazol-1-yl]-N-methylpropanamide], for which the IC50 is 0.47 nM in experiment [1]; 0.27 nM in experiment [2]; 1270 nM in experiment [3]; 103 nM in experiment [4]; 93.7 nM in experiment [5].

For the molecule `NC(=O)CCn1cc(-c2ncnc3oc(-c4ccccc4)cc23)c(-c2ccc(F)cc2)n1` [Example 118, 3-[3-(4-Fluorophenyl)-4-(6-phenylfuro[2,3-d]pyrimidin-4-yl)-1H-pyrazol-1-yl]propanamide], the IC50 in experiment [1] worked out at 0.56 nM; in experiment [2] it was 0.25 nM; in experiment [3] it was 1020 nM; in experiment [4] it was 38.3 nM; in experiment [5], 50.5 nM.

Regarding `Fc1ccc(-c2nn(CC(F)F)cc2-c2ncnc3oc(-c4ccccc4)cc23)cc1` [Example 119, 4-[1-(2,2-Difluoroethyl)-3-(4-fluorophenyl)-1H-pyrazol-4-yl]-6-phenylfuro[2,3-d]pyrimidine], the IC50 in experiment [1] was found to be 0.7 nM; in experiment [2], 0.34 nM; in experiment [3], 1340 nM; in experiment [4], 35.5 nM; in experiment [5], 50.9 nM.
